Data published in patent US20050282743A1, “Molecular interactions in cells” (Arbor Vita Corporation, priority 2001, published 2005).
Ends that are not written are not given here. Peptide text beside a SMILES is read from it. * marks the point of attachment. Biotin = O=C1N[C@H]2[C@H](CS[C@H]2CCCCC(=O)*)N1

Legend:
Assay in all cases: G' assay (10 uM PL peptide), results of TABLE 7 and TABLE 12
Format in all cases: binding
[1] = molecular target: T1, PDZ protein (GST-PDZ fusion) (Homo sapiens, UniProt Q86UL8)
T1 construct: made in house; host or cells: E. coli (DH5alpha, BL21 or JM109)
Procedure, shortened: (§1)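 Same steps as the G-zero format, apart from a peptide concentration of 10 uM in place of 20 uM in step 2. Amino-terminally biotinylated PL peptides bind GST-PDZ fusions, and retained peptide is quantified by 450 nm absorbance.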

[2] = molecular target: T2, PDZ protein (GST-PDZ fusion) (Homo sapiens, UniProt Q12959)
T2 construct: made in house; host or cells: E. coli (DH5alpha, BL21 or JM109)
Procedure, shortened: as §1

[3] = molecular target: T3, PDZ protein (GST-PDZ fusion) (Homo sapiens, UniProt Q92796); details: PDZ NeDLG
T3 construct: made in house; host or cells: E. coli (DH5alpha, BL21 or JM109)
T3 sequence (Q92796 1-817): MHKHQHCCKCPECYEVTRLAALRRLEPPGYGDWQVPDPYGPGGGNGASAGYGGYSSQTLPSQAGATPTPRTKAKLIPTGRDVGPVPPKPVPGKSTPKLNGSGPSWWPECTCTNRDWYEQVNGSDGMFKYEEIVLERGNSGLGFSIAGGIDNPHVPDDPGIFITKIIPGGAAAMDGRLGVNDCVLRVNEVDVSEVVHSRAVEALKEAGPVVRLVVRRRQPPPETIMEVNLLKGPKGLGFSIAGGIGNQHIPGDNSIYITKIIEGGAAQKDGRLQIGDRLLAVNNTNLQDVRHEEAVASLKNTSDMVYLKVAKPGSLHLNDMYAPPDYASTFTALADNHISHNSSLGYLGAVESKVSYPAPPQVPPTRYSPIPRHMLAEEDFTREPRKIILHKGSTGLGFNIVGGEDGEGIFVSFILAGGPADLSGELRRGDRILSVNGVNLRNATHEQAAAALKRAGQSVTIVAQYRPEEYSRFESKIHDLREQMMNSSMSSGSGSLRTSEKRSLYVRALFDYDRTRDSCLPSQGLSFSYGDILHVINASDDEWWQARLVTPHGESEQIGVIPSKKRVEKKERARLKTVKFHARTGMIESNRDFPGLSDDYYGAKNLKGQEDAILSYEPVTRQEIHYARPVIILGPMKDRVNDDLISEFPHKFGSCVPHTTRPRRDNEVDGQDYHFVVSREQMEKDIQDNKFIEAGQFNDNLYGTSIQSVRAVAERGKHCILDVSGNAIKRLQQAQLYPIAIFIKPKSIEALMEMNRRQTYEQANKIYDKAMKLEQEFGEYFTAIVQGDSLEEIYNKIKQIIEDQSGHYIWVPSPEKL
Procedure, shortened: as §1

[4] = molecular target: T4, PDZ protein (GST-PDZ fusion) (Homo sapiens, UniProt O14907); details: PDZ TIP1, PDZ Domain 1
T4 construct: made in house; host or cells: E. coli (DH5alpha, BL21 or JM109)
T4 sequence (O14907 1-124): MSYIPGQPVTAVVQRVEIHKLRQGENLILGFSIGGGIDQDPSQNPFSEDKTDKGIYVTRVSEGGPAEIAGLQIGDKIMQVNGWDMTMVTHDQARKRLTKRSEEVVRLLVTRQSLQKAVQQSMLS
Procedure, shortened: as §1

[5] = molecular target: T5, PDZ protein (GST-PDZ fusion) (Homo sapiens, UniProt Q15700)
T5 construct: made in house; host or cells: E. coli (DH5alpha, BL21 or JM109)
Procedure, shortened: as §1

[6] = molecular target: T6, PDZ protein (GST-PDZ fusion) (Homo sapiens, UniProt Q8NI35); details: PDZ INADL
T6 construct: made in house; host or cells: E. coli (DH5alpha, BL21 or JM109)
Procedure, shortened: as §1

[7] = molecular target: T7, PDZ protein (GST-PDZ fusion) (Homo sapiens, UniProt O15018); details: PDZ AIPC, PDZ Domain 1
T7 construct: made in house; host or cells: E. coli (DH5alpha, BL21 or JM109)
Procedure, shortened: as §1

[8] = molecular target: T8, PDZ protein (GST-PDZ fusion) (Homo sapiens, UniProt P78352)
T8 construct: made in house; host or cells: E. coli (DH5alpha, BL21 or JM109)
Procedure, shortened: as §1

[9] = molecular target: T9, PDZ protein (GST-PDZ fusion) (Homo sapiens, UniProt Q14160)
T9 construct: made in house; host or cells: E. coli (DH5alpha, BL21 or JM109)
Procedure, shortened: as §1

[10] = PDZ Atrophin-1 Inter. Prot., PDZ Domain 5
[11] = PDZ atrophin-1 interacting Protein, PDZ Domain 3
[12] = PDZ atrophin-1 interacting Protein (Atrophin-1 Inter. Prot.), PDZ Domain 1

T1 sequence (Q86UL8 whole entry, the tested form may be a part): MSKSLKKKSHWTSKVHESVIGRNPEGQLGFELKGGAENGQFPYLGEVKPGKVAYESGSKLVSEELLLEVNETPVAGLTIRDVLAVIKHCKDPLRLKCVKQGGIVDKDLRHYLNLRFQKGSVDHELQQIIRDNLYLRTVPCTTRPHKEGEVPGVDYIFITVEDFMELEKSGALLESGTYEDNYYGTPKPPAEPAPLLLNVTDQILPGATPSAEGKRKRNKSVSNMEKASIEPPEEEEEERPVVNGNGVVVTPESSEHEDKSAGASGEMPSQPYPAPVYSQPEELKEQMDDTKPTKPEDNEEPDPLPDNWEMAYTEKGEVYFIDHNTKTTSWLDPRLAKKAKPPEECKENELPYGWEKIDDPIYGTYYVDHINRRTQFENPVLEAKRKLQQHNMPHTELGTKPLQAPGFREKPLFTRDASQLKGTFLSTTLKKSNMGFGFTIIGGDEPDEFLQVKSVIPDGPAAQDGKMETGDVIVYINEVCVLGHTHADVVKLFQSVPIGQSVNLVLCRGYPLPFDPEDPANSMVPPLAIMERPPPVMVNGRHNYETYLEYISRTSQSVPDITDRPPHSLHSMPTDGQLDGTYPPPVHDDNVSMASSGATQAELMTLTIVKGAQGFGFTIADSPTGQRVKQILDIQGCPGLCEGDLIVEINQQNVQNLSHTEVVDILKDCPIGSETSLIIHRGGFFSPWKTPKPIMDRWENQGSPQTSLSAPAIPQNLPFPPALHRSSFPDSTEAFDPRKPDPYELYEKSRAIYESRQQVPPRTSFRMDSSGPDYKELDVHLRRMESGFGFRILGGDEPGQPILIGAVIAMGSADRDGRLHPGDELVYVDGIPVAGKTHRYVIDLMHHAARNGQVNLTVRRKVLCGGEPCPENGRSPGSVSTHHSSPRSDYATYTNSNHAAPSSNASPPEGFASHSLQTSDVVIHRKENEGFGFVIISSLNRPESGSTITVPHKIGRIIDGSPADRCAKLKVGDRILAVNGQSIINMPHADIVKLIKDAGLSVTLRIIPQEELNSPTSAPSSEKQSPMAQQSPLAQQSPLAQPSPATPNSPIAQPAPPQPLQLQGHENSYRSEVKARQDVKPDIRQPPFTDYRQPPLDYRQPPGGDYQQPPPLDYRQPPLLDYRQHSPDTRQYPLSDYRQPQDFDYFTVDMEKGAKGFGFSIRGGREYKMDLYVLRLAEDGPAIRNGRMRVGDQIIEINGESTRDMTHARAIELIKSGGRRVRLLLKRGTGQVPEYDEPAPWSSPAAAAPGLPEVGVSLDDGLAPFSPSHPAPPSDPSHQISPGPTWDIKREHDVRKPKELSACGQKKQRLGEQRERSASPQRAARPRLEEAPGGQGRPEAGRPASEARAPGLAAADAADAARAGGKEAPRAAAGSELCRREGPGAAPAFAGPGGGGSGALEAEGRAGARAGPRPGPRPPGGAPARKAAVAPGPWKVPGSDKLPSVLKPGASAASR
T8 sequence (P78352 whole entry, the tested form may be a part): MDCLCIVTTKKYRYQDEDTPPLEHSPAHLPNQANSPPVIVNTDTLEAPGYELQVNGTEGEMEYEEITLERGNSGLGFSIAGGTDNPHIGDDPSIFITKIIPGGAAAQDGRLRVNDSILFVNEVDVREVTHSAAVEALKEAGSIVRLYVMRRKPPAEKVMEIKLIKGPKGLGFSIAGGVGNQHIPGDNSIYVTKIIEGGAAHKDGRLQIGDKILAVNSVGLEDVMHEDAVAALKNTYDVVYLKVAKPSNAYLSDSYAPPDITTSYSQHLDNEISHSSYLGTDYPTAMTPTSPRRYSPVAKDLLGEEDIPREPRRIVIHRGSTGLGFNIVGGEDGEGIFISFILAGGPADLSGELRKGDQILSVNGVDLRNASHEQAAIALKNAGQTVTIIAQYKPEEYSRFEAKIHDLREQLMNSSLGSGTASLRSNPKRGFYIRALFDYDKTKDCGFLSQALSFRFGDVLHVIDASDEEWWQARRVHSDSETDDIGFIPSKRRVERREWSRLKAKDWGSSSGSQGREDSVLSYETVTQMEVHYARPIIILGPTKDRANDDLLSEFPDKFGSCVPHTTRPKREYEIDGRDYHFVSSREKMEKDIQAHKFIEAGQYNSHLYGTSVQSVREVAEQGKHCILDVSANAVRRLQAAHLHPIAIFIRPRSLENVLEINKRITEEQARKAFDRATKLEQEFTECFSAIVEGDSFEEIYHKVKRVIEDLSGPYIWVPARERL
T6 sequence (Q8NI35 whole entry, the tested form may be a part): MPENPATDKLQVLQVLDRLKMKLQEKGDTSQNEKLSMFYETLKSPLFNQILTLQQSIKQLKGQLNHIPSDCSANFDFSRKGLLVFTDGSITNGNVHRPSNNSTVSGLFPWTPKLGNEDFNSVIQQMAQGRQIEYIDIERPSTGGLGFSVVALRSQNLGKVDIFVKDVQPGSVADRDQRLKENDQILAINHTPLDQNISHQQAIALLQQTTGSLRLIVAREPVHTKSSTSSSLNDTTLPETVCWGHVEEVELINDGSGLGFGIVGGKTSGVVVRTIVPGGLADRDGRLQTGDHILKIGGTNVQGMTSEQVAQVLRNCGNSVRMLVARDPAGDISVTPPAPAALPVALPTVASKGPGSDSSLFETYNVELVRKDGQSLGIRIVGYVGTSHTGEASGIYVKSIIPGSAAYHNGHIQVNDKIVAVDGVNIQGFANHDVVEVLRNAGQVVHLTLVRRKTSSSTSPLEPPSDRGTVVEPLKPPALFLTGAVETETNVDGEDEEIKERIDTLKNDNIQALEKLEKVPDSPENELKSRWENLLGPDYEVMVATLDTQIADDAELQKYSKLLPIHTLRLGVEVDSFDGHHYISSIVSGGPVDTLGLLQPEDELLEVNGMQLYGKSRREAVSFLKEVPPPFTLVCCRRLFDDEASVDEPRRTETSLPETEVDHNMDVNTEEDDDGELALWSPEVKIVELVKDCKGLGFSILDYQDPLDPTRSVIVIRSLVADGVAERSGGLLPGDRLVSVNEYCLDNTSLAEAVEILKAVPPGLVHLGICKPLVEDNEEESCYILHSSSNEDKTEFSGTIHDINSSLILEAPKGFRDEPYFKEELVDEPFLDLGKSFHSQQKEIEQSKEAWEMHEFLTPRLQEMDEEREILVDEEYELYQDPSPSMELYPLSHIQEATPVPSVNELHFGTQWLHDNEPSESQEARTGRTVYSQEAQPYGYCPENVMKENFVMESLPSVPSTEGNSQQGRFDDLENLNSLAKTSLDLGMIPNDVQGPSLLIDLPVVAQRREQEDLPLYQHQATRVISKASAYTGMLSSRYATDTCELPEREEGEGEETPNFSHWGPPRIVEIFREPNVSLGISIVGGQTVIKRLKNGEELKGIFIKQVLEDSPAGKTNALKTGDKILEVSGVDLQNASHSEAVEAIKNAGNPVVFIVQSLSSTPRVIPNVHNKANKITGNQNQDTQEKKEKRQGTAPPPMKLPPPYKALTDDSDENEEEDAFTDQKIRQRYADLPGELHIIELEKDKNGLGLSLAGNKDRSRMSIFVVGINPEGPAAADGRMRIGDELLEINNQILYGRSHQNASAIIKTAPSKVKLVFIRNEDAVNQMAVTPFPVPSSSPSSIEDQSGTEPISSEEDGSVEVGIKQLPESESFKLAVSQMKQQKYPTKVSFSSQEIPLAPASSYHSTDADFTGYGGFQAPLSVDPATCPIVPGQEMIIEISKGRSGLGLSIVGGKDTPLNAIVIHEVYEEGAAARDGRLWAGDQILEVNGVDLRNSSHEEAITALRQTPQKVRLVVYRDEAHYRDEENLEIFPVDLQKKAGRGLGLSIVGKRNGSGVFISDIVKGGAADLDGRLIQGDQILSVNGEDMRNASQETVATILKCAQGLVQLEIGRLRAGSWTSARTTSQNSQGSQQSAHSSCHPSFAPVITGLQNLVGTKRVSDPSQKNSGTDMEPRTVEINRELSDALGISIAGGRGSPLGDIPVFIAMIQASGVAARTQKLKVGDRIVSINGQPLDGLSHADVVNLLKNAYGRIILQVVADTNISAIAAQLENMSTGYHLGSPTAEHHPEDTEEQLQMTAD
T5 sequence (Q15700 whole entry, the tested form may be a part): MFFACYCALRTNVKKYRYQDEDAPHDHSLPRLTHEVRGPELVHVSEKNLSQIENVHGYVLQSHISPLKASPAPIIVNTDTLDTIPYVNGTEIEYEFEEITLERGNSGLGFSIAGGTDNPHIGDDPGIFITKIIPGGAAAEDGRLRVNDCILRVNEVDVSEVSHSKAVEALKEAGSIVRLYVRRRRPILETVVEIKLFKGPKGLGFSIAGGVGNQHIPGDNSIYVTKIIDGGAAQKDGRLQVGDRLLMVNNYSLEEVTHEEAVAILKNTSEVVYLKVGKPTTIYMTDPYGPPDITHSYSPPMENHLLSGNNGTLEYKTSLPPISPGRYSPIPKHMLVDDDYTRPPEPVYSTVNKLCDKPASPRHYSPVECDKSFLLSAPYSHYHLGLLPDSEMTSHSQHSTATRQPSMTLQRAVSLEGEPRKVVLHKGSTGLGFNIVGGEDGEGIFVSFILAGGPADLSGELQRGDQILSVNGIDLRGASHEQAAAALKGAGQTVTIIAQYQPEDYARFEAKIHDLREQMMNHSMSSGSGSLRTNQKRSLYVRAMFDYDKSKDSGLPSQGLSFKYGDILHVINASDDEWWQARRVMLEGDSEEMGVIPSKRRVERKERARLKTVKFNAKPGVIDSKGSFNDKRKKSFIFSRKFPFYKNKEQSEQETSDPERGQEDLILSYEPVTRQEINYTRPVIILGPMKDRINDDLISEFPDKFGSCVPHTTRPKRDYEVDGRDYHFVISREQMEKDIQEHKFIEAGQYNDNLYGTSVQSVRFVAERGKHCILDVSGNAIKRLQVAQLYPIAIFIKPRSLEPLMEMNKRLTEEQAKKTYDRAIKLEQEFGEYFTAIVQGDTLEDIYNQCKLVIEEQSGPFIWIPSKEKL

| Classification [1, 11] | Classification ([3]; PDZ Domain 3) | Classification ([6]; PDZ Domain 5) | Classification [7] | Classification ([9]; PDZ KIAA0147, PDZ Domain 2) | Compound | Classification [1, 10] | Classification ([2]; PDZ DLG1, PDZ Domain 1) | Classification ([2]; PDZ DLG1, PDZ Domain 1, 2) | Classification ([2]; PDZ DLG1, PDZ Domain 2) | Classification ([3]; PDZ Domain 1) | Classification ([3]; PDZ Domain 1, 2) | Classification ([3]; PDZ Domain 2) | Classification [4] | Classification ([5]; PDZ DLG2, PDZ Domain 1) | Classification ([5]; PDZ DLG2, PDZ Domain 2) | Classification ([6]; PDZ Domain 8) | Classification ([8]; PDZ PSD95, PDZ Domain 1) | Classification ([8]; PDZ PSD95, PDZ Domain 1, 2, 3) | Classification ([8]; PDZ PSD95, PDZ Domain 3) | Classification ([9]; PDZ KIAA0147, PDZ Domain 1) | further results |
| --- | --- | --- | --- | --- | --- | --- | --- | --- | --- | --- | --- | --- | --- | --- | --- | --- | --- | --- | --- | --- | --- |
| 2 (A450 nm 1-2) | 1 (A450 nm 0-1) | 1 (A450 nm 0-1) | 3 (A450 nm 2-3) | 1 (A450 nm 0-1) | TQGFPGPATWRRISSLESEV | 5 (A450 nm of 4 more than 2× repeated) | 5 (A450 nm of 4 more than 2× repeated) | 5 (A450 nm of 4 more than 2× repeated) | 5 (A450 nm of 4 more than 2× repeated) | 2 (A450 nm 1-2) | 5 (A450 nm of 4 more than 2× repeated) | 5 (A450 nm of 4 more than 2× repeated) | 5 (A450 nm of 4 more than 2× repeated) | 4 (A450 nm 3-4) | 5 (A450 nm of 4 more than 2× repeated) | 1 (A450 nm 0-1) | 5 (A450 nm of 4 more than 2× repeated) | 5 (A450 nm of 4 more than 2× repeated) | 2 (A450 nm 1-2) | 5 (A450 nm of 4 more than 2× repeated) | Classification ([1]; PDZ atrophin-1 interacting Protein, PDZ Domain 1): 5 (A450 nm of 4 more than 2× repeated); Classification ([6]; PDZ Domain 3): 2 (A450 nm 1-2); Classification ([9]; PDZ KIAA0147, PDZ Domain 3): 1 (A450 nm 0-1) |
| 1 (A450 nm 0-1) | 1 (A450 nm 0-1) | 1 (A450 nm 0-1) | 2 (A450 nm 1-2) | 3 (A450 nm 2-3) | PYSELNYETSHYPASPDSWV (Biotin-PYSELNYETSHYPASPDSWV) [catenin - delta 2] | 5 (A450 nm of 4 more than 2× repeated) | 1 (A450 nm 0-1) | 3 (A450 nm 2-3) | 2 (A450 nm 1-2) |  |  |  | 3 (A450 nm 2-3) |  | 1 (A450 nm 0-1) | 2 (A450 nm 1-2) | 1 (A450 nm 0-1) | 2 (A450 nm 1-2) |  |  | Classification ([9]; PDZ KIAA0147, PDZ Domain 4): 1 (A450 nm 0-1) |

| Compound | Classification [1, 11] | Classification ([3]; PDZ Domain 3) | Classification ([6]; PDZ Domain 5) | Classification [7] | Classification ([9]; PDZ KIAA0147, PDZ Domain 2) | Classification [1, 10] | Classification ([2]; PDZ DLG1, PDZ Domain 1) | Classification ([2]; PDZ DLG1, PDZ Domain 1, 2) | Classification ([2]; PDZ DLG1, PDZ Domain 2) | Classification ([3]; PDZ Domain 1) | Classification ([3]; PDZ Domain 1, 2) | Classification ([3]; PDZ Domain 2) | Classification [4] | Classification ([5]; PDZ DLG2, PDZ Domain 1) | Classification ([5]; PDZ DLG2, PDZ Domain 2) | Classification ([6]; PDZ Domain 8) | Classification ([8]; PDZ PSD95, PDZ Domain 1) | Classification ([8]; PDZ PSD95, PDZ Domain 1, 2, 3) | Classification ([8]; PDZ PSD95, PDZ Domain 3) | Classification ([9]; PDZ KIAA0147, PDZ Domain 1) | further results |
| --- | --- | --- | --- | --- | --- | --- | --- | --- | --- | --- | --- | --- | --- | --- | --- | --- | --- | --- | --- | --- | --- |
| CC(C)C[C@H](NC(=O)[C@H](C)NC(=O)[C@H](CO)NC(=O)CNC(=O)[C@@H](NC(=O)CCCC[C@@H]1SC[C@@H]2NC(=O)N[C@@H]21)[C@@H](C)O)C(=O)N[C@@H](CCC(N)=O)C(=O)N[C@@H](C)C(=O)N[C@@H](Cc1c[nH]c2ccccc12)C(=O)N[C@@H](CCCNC(=N)N)C(=O)N[C@@H](Cc1c[nH]cn1)C(=O)N[C@H](C(=O)N[C@@H](CO)C(=O)N[C@@H](CCCNC(=N)N)C(=O)N[C@@H](CCC(N)=O)C(=O)N[C@@H](C)C(=O)N[C@H](C(=O)N[C@@H](CCC(=O)O)C(=O)N[C@@H](CO)C(=O)N[C@H](C(=O)N[C@H](C(=O)O)C(C)C)[C@@H](C)O)[C@@H](C)O)[C@@H](C)O [HPV E6 #66 (modified)] (Biotin-TGSALQAWRHTSRQATESTV-OH; C-terminus assumed) |  |  |  | 1 (A450 nm 0-1) |  | 1 (A450 nm 0-1) | 4 (A450 nm 3-4) | 5 (A450 nm of 4 more than 2× repeated) | 5 (A450 nm of 4 more than 2× repeated) | 1 (A450 nm 0-1) | 5 (A450 nm of 4 more than 2× repeated) | 4 (A450 nm 3-4) | 5 (A450 nm of 4 more than 2× repeated) | 1 (A450 nm 0-1) | 5 (A450 nm of 4 more than 2× repeated) | 1 (A450 nm 0-1) | 4 (A450 nm 3-4) | 5 (A450 nm of 4 more than 2× repeated) | 1 (A450 nm 0-1) | 2 (A450 nm 1-2) | Classification [1, 12]: 5 (A450 nm of 4 more than 2× repeated) |
| CSCC[C@H](NC(=O)[C@H](C)NC(=O)[C@H](CCCNC(=N)N)NC(=O)CNC(=O)[C@@H](NC(=O)[C@H](Cc1c[nH]c2ccccc12)NC(=O)[C@H](CCCNC(=N)N)NC(=O)CNC(=O)CCCC[C@@H]1SC[C@@H]2NC(=O)N[C@@H]21)[C@@H](C)O)C(=O)N[C@@H](CO)C(=O)N[C@@H](C)C(=O)N[C@@H](Cc1c[nH]c2ccccc12)C(=O)N[C@@H](CCCCN)C(=O)N1CCC[C@H]1C(=O)N[C@H](C(=O)N[C@@H](CCCNC(=N)N)C(=O)N[C@@H](CCCNC(=N)N)C(=O)N[C@@H](CCC(=O)O)C(=O)N[C@H](C(=O)N[C@@H](CCC(=O)O)C(=O)N[C@H](C(=O)O)C(C)C)[C@@H](C)O)[C@@H](C)O [HPV E6 #35 (modified)] (Biotin-GRWTGRAMSAWKPTRRETEV-OH; C-terminus assumed) | 4 (A450 nm 3-4) | 5 (A450 nm of 4 more than 2× repeated) | 1 (A450 nm 0-1) |  | 5 (A450 nm of 4 more than 2× repeated) | 4 (A450 nm 3-4) | 5 (A450 nm of 4 more than 2× repeated) | 5 (A450 nm of 4 more than 2× repeated) | 5 (A450 nm of 4 more than 2× repeated) | 5 (A450 nm of 4 more than 2× repeated) | 5 (A450 nm of 4 more than 2× repeated) | 5 (A450 nm of 4 more than 2× repeated) | 5 (A450 nm of 4 more than 2× repeated) | 5 (A450 nm of 4 more than 2× repeated) | 5 (A450 nm of 4 more than 2× repeated) | 4 (A450 nm 3-4) | 5 (A450 nm of 4 more than 2× repeated) | 5 (A450 nm of 4 more than 2× repeated) | 5 (A450 nm of 4 more than 2× repeated) | 5 (A450 nm of 4 more than 2× repeated) | Classification [1, 12]: 5 (A450 nm of 4 more than 2× repeated); Classification ([1]; PDZ atrophin-1 interacting Protein, PDZ Domain 2): 1 (A450 nm 0-1); Classification ([2]; PDZ DLG1, PDZ Domain 3): 3 (A450 nm 2-3); Classification ([6]; PDZ Domain 3): 1 (A450 nm 0-1); Classification ([7]; PL peptide 10 uM, Protein Optimal Conc 5): 1 (A450 nm 0-1); Classification ([9]; PDZ KIAA0147, PDZ Domain 3): 4 (A450 nm 3-4); Classification ([9]; PDZ KIAA0147, PDZ Domain 4): 1 (A450 nm 0-1) |
